Laboratory results published in patent US8507756B2, “Plant protection” (Plant Bioscience Limited, priority 2007, dated 2013).

Experiments:
[1] = tested on: Manduca sexta (tobacco hornworm); assay: JA seed treatment, tomato plants challenged with Manduca sexta caterpillars; format: in vivo; conditions: tomato cv. Carousel, seed treatment 1.5 mM JA, 4 days feeding
Method: Tomato, pepper, maize and wheat seeds were treated with 3 mM JA or 1.5 mM JA solutions or with 3 mM methyl jasmonate (MeJA) or with deionised water containing 42.8 mM ethanol (control) by full submersion of up to 40 seeds in a Petri dish of solution wrapped in foil for a period of 24 hours at 4° C. in a fridge. A temperature of 4° C. was used both to prevent degradation of the jasmonic acid solutions and to prevent germination of the seeds.
Tomato plants were then challenged with Tetranychus urticae (two-spotted spider mite) which were allowed to feed for 9 days, Manduca sexta (tobacco hornworm) caterpillars which were allowed to feed for 4 days or Myzus persicae (aphid), which were allowed to feed for 10 or 12 days. In each case these organisms were restricted to the plant on which they had originally been placed. Pepper plants were challenged with Myzus persicae (aphid), which were allowed to feed for 2 weeks. […]
The effect of Manduca sexta or Spodoptera exempta on plants was determined by measurement of the leaf area eaten, measured using a leaf area meter.
Seeds of a UK commercial F1 hybrid tomato variety (cv. Carousel) were treated with 1.5 mM jasmonic acid (JA), and plants grown in conditions appropriate to this crop (as described under Example 1). […] Caterpillars were allowed to feed on the plants for four days and the area of grazed leaves was then measured. […]

[2] = tested on: Myzus persicae; assay: JA seed treatment, sweet pepper plants challenged with aphids; format: in vivo; conditions: sweet pepper cv Biscayne, seed treatment 1.5 mM JA
Method: Tomato, pepper, maize and wheat seeds were treated with 3 mM JA or 1.5 mM JA solutions or with 3 mM methyl jasmonate (MeJA) or with deionised water containing 42.8 mM ethanol (control) by full submersion of up to 40 seeds in a Petri dish of solution wrapped in foil for a period of 24 hours at 4° C. in a fridge. A temperature of 4° C. was used both to prevent degradation of the jasmonic acid solutions and to prevent germination of the seeds. Pepper seeds were sown in peat-based compost and grown in unheated glass houses under ambient conditions in the summer. Tomato plants were then challenged with Tetranychus urticae (two-spotted spider mite) which were allowed to feed for 9 days, Manduca sexta (tobacco hornworm) caterpillars which were allowed to feed for 4 days or Myzus persicae (aphid), which were allowed to feed for 10 or 12 days. In each case these organisms were restricted to the plant on which they had originally been placed. Pepper plants were challenged with Myzus persicae (aphid), which were allowed to feed for 2 weeks. […] The effect of Myzus persicae on plants was determined by counting the aphid population on each plant under a dissecting microscope at ×10 magnification. […] Aphids were allowed to feed on the plants for two weeks and the growth of the aphid population over this period was then measured. […]

[3] = tested on: Tetranychus urticae (two-spotted spider mite); assay: Spider mite challenge of untreated tomato plants grown adjacent to plants from JA-treated seeds; format: in vivo; conditions: tomato cv Carousel; neighbours of 1.5 or 3.0 mM JA seed treatment
Method: The effect of Tetranychus urticae on plants was measured by means of counting the number of live and dead mites on each plant and the number of mite eggs present using a dissecting microscope. Seeds of a UK commercial F1 hybrid tomato variety (cv. Carousel) were treated with either 1.5 or 3.0 mM jasmonic acid (JA) and 42.8 mM ethanol in deionised H2O for a period of 24 hours at 4° C. in the dark. Those seeds were then removed from solution and washed in deionised H2O only to remove the JA coating the outside of the seed. Those seed were then germinated in a commercial manner using rockwool blocks and were grown on under glasshouse conditions appropriate to this crop. Plants were challenged with two-spotted spider mite (Tetranychus urticae) 7 weeks after treatment a common crop pest, acting here as a “model herbivore”. […] The effect was observed on comparing the controls located at least 10 meters away. (FIG. 6). The illustrated data are means of 10 replicates+/−standard error of the mean. […] The effect was again observed on comparing the controls located at least 10 meters away. (FIG. 7). The illustrated data are means of 10 replicates+/−standard error of the mean.

[4] = tested on: tomato (Solanum lycopersicum cv "Carousel") seeds; assay: Effect of JA seed treatment on seed germination of tomato; format: in vivo
Text: The illustrated data are means of 10 replicate populations+/−standard error of the mean, and the line is a fitted dose response.

[5] = tested on: tomato (cv. Carousel); assay: Long term growth and yield study after JA seed treatment, tomato; format: in vivo, Solanum lycopersicum
Text: (§1) Data are means of 8 replicate plants+/−standard error of the mean, and the line is a fitted growth response.

[6] = tested on: cucumber; assay: Long term growth and yield study after JA seed treatment, cucumber; format: in vivo; conditions: seed treatment 1.5 or 3.0 mM JA, weekly harvests
Text: as §1

[7] = tested on: pepper; assay: Long term growth and yield study after JA seed treatment, pepper; format: in vivo; conditions: seed treatment 1.5 or 3.0 mM JA, weekly harvests
Text: as §1

[8] = Dissolution of JA in water when preparing the solution; format: physicochemical; conditions: 250 mg JA; ethanol needed first
Method: 6. 1 ml of ethanol was added to the vial of JA using a 1000 μl Gilson pipette, the lid of the vial replaced and the vial shaken to dissolve the JA.

[9] = tomato cv. Carousel, JA seed treatment vs control, 8 replicate plants

## CC/C=C\C[C@H]1C(=O)CC[C@@H]1CC(=O)O [JA, jasmonic acid]
[1]
  Caterpillar growth, less than those feeding on controls: 20%
[1]; challenged 8 weeks after seed treatment
  Leaf area remaining after grazing, compared with controls: significantly higher
[2]; challenged 8 weeks after seed treatment, 2 weeks feeding
  Rate of aphid population growth compared with controls: significant (p<0.001) reduction
[2]; control 0.19+/-0.011
  Aphid population growth rate from fitted growth curves: 0.11+/−0.016
[3]
  Population of T. urticae on untreated plants grown adjacent to plants from JA-treated seeds, vs controls at least 10 meters away: significant reduction
  Reproductive rate of the mite (egg production) on untreated plants grown adjacent to plants from JA-treated seeds, vs controls at least 10 meters away: significant reduction
[4]; JA between 0.001 and 50 mM tested, germination 7 days after sowing
  JA concentration that significantly reduced the final percentage germination: > 10 mM
[4]; seed treatment 1.5 or 3.0 mM JA
  Final percentage germination: no significant effects
[4]; seed treatment 1.5 or 3.0 mM JA, 24 hours at 4 C in the dark
  Delay of seed germination: delayed by approximately one day
[5]; [9]
  Fruit dry weight at each weekly harvest: no significant effects
  Number of fruit at each weekly harvest: no significant effects
  Plant height at each weekly harvest: no significant effects
[5]; tomato, seed treatment 1.5 or 3.0 mM JA, weekly harvests
  Vegetative or reproductive growth, or commercial yield: no significant effect
[6]
  Vegetative or reproductive growth, or commercial yield: no significant effect
[7]
  Vegetative or reproductive growth, or commercial yield: no significant effect
[8]
  Solubility in water: will not dissolve in water directly
